From patent US10576085B2, “Substituted aminopurine compounds, compositions thereof, and methods of treatment therewith” (Signal Pharmaceuticals, LLC, priority 2016, dated 2020)

How the values were obtained:
NLK = NLK (Homo sapiens, UniProt Q9UBE8); experiment: Known kinases inhibited (no method given); assay type: biochemical
[1] = test system: cancer cell lines of Table 2; experiment: Multiplexed cytotoxicity assay: cell proliferation (relative cell count IC50, GI50); assay type: cell-based
Method: Cells are grown in RPMI1640, 10% FBS, 2 mM L-alanyl-L-Glutamine, 1 mM Na pyruvate or a special medium in a humidified atmosphere of 5% CO2 at 37° C. Cells are seeded into 384-well plates and incubated in a humidified atmosphere of 5% CO2 at 37° C. Compounds are added 24 h post cell seeding. At the same time, a time zero untreated cell plate is generated. After a 72 hour incubation period, cells are fixed and stained with fluorescently labeled antibodies and nuclear dye to allow visualization of nuclei, apoptotic cells and mitotic cells. Apoptotic cells are detected using an anti-active caspase-3 antibody. Mitotic cells are detected using an anti phospho-histone-3 antibody. Compounds are serially diluted 3.16-fold and assayed over 10 concentrations in a final assay concentration of 0.1% DMSO from the highest test concentration of 10 μM. Automated fluorescence microscopy was carried out using a Molecular Devices ImageXpress Micro XL high-content imager, and images are collected with a 4× objective.
(§1) Sixteen-bit TIFF images are acquired and analyzed with MetaXpress 5.1.0.41 software. Cell proliferation is measured by the signal intensity of the incorporated nuclear dye. The cell proliferation assay output is referred to as the relative cell count. To determine the cell proliferation end point, the cell proliferation data output is transformed to percentage of control (POC) using the following formula: POC=relative cell count(compound wells)/relative cell count(vehicle wells)×100
(§2) GI50 is the concentration needed to reduce the observed growth by half. This is the concentration that inhibits the growth to the level midway between growth in untreated cells and the number of cells seeded in the well (Time zero value). The IC50 values are calculated using nonlinear regression to fit data to a sigmoidal 4 point, 4 parameter One-Site dose response model, where: y(fit)=A+[(B−A)/(1+((C/x)^D))].
In Another Experiment, Cells were Grown in RPMI1640, 10% FBS, 2 mM L-alanyl-L-Glutamine, 1 mM Na pyruvate or a special medium in a humidified atmosphere of 5% CO2 at 37° C. Cells were seeded into 384-well plates and incubated in a humidified atmosphere of 5% CO2 at 37° C. Compounds were added 24 h post cell seeding. At the same time, a time zero untreated cell plate was generated. After a 72 hour incubation period, cells were fixed and stained with fluorescently labeled antibodies and nuclear dye to allow visualization of nuclei, apoptotic cells and mitotic cells. Apoptotic cells were detected using an anti-active caspase-3 antibody. Mitotic cells were detected using an anti phospho-histone-3 antibody. Compounds were serially diluted 3.16-fold and assayed over 10 concentrations in a final assay concentration of 0.1% DMSO from the highest test concentration of 10 μM. Automated fluorescence microscopy was carried out using a Molecular Devices ImageXpress Micro XL high-content imager, and images were collected with a 4× objective.
as §1, with “images were” for “images are”, “proliferation was” for “proliferation is”, “output was” for “output is”
as §2, with “GI50 refers to” for “GI50 is”, “This corresponds to” for “This is”, “values were” for “values are”

[2] = Homo sapiens, A204, A204, Soft Tissue, Sarcoma
[3] = Homo sapiens, A704, A704, Kidney
[4] = Homo sapiens, ARH-77, ARH77, Myeloma
[5] = Homo sapiens, BT-474, BT474, Breast
[6] = Homo sapiens, BT-549, BT549, Breast
[7] = Homo sapiens, C-4-II, C4II, Female GU, Cervix
[8] = Homo sapiens, CCF-STTG1, CCFSTTG1, CNS, Glioma
[9] = Homo sapiens, CFPAC-1, CFPAC1, Pancreas
[10] = Homo sapiens, ChaGo-K-1, CHAGOK1, Lung, NSCLC
[11] = Homo sapiens, K562, K562, Leukemia
[12] = Homo sapiens, ME-180, ME180, Female GU, Ovary
[13] = Homo sapiens, NALM-6, NALM6, Leukemia
[14] = Homo sapiens, NCI-H295R, NCIH295R, Endocrine, Adrenal gland
[15] = Homo sapiens, NCI-H460, NCIH460, Lung, NSCLC
[16] = Homo sapiens, OVCAR-3, OVCAR3, Female GU, Ovary
[17] = Homo sapiens, SK-NEP-1, SKNEP1, Kidney
[18] = Homo sapiens, SK-UT-1, SKUT1, Soft Tissue, Sarcoma
[19] = Homo sapiens, SNU-16, SNU16, Stomach
[20] = Homo sapiens, SiHa, Female GU, Cervix
[21] = Homo sapiens, T98G, CNS, Glioma
[22] = KHOS-240S, KHOS240S, Soft Tissue, Osteosarcoma

NLK, sequence (Q9UBE8 whole entry): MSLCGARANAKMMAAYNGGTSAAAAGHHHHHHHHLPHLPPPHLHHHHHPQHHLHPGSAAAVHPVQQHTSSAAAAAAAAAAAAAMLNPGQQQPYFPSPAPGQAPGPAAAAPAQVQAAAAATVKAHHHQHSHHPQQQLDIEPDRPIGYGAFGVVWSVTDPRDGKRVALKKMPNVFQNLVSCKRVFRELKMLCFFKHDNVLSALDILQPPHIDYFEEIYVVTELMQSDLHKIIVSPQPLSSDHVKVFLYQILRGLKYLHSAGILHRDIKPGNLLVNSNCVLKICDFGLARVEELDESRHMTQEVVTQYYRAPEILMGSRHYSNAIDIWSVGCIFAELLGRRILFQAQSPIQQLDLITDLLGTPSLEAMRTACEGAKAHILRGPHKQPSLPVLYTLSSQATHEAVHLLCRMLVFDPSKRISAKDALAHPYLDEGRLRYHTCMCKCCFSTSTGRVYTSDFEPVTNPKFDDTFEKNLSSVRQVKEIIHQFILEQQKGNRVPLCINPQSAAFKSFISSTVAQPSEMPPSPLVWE

## C[C@]1(C(N)=O)CC[C@@H](n2c(Nc3c(Cl)cc(Cl)cc3Cl)nc3cnc(N[C@@H]4CCOC[C@H]4F)nc32)CC1 [Compound 1, cis-4-[2-{[(3S,4R)-3-fluorooxan-4-yl]amino}-8-(2,4,6-trichloroanilino)-9H-purin-9-yl]-1-methyl cyclohexane-1-carboxamide]
NLK
  Kinase inhibition: inhibited
[1]; BC1, Lymphoma
  GI50: 10 µM
  IC50: 10 µM
[1]; C4I, Female GU, Cervix
  GI50: 10 µM
  IC50: 10 µM
[1]; CEM/C1, CEMC1, Leukemia
  GI50: 10 µM
  IC50: 10 µM
[1]; CML-T1, CMLT1, Leukemia
  IC50: 10 µM
[1]; DB, Lymphoma
  IC50: 10 µM
[1]; HS229T, Lung, NSCLC
  IC50: 10 µM
[1]; HS688AT, Skin, Melanoma
  IC50: 10 µM
[1]; HS729, Soft Tissue, Sarcoma
  IC50: 10 µM
[1]; HS821T, Soft Tissue, Sarcoma
  IC50: 10 µM
[1]; HS888SK, Soft Tissue, Osteosarcoma
  IC50: 10 µM
[1]; HS895T, Skin, Melanoma
  GI50: 10 µM
  IC50: 10 µM
[1]; HS934T, Skin, Melanoma
  IC50: 10 µM
[1]; HT, Lymphoma
  IC50: 10 µM
[1]; [2]
  GI50: 10 µM
  IC50: 10 µM
[1]; Homo sapiens, A253, A253, Head and Neck
  IC50: 10 µM
[1]; [3]
  GI50: 10 µM
  IC50: 10 µM
[1]; [4]
  GI50: 10 µM
  IC50: 10 µM
[1]; Homo sapiens, ASPC1, ASPC1, Pancreas
  IC50: 10 µM
[1]; Homo sapiens, BT-20, BT20, Breast
  IC50: 10 µM
[1]; [5]
  GI50: 10 µM
  IC50: 10 µM
[1]; [6]
  GI50: 10 µM
  IC50: 10 µM
[1]; Homo sapiens, BV-173, BV173, Leukemia
  IC50: 10 µM
[1]; [7]
  GI50: 10 µM
  IC50: 10 µM
[1]; Homo sapiens, CAPAN-1, CAPAN1, Pancreas
  IC50: 10 µM
[1]; [8]
  GI50: 10 µM
  IC50: 10 µM
[1]; [9]
  GI50: 10 µM
  IC50: 10 µM
[1]; Homo sapiens, COLO 320DM, COLO320DM, Colon
  IC50: 10 µM
[1]; Homo sapiens, Ca-Ski, CASKI, Female GU, Ovary
  IC50: 10 µM
[1]; Homo sapiens, Caov-3, CAOV3, Female GU, Ovary
  IC50: 10 µM
[1]; [10]
  GI50: 10 µM
  IC50: 10 µM
[1]; Homo sapiens, DMS-53, DMS53, Lung, SCLC
  IC50: 10 µM
[1]; Homo sapiens, Daudi, Lymphoma
  IC50: 10 µM
[1]; Homo sapiens, Detroit 562, DETROIT562, Head and Neck
  IC50: 10 µM
[1]; Homo sapiens, EFM-19, EFM19, Breast
  IC50: 10 µM
[1]; Homo sapiens, HT1197, HT1197, Bladder
  IC50: 10 µM
[1]; [11]
  GI50: 10 µM
  IC50: 10 µM
[1]; Homo sapiens, MDA-MB-415, MDAMB415, Breast
  IC50: 10 µM
[1]; Homo sapiens, MDA-MB-436, MDAMB436, Breast
  IC50: 10 µM
[1]; [12]
  GI50: 10 µM
  IC50: 10 µM
[1]; [13]
  GI50: 10 µM
  IC50: 10 µM
[1]; Homo sapiens, NCI-H69, NCIH69, Lung, SCLC
  IC50: 10 µM
[1]; [14]
  GI50: 10 µM
  IC50: 10 µM
[1]; Homo sapiens, NCI-H446, NCIH446, Lung, SCLC
  IC50: 10 µM
[1]; [15]
  GI50: 10 µM
  IC50: 10 µM
[1]; Homo sapiens, NCI-H596, NCIH596, Lung, NSCLC
  IC50: 10 µM
[1]; Homo sapiens, OE19, OE19, Head and Neck, Esophageal
  IC50: 10 µM
[1]; [16]
  GI50: 10 µM
  IC50: 10 µM
[1]; Homo sapiens, PFSK-1, PFSK1, CNS, Glioma
  IC50: 10 µM
[1]; Homo sapiens, Raji, Lymphoma
  IC50: 10 µM
[1]; Homo sapiens, SK-N-DZ, SKNDZ, CNS, Neuroblastoma
  IC50: 10 µM
[1]; [17]
  GI50: 10 µM
  IC50: 10 µM
[1]; Homo sapiens, SK-OV-3, SKOV3, Female GU, Ovary
  IC50: 10 µM
[1]; [18]
  GI50: 10 µM
  IC50: 10 µM
[1]; [19]
  GI50: 10 µM
  IC50: 10 µM
[1]; [20]
  GI50: 10 µM
  IC50: 10 µM
[1]; Homo sapiens, T47D, Breast
  GI50: 10 µM
  IC50: 10 µM
[1]; [21]
  GI50: 10 µM
  IC50: 10 µM
[1]; Homo sapiens, U138-MG, U138MG, CNS, Glioma
  IC50: 10 µM
[1]; Homo sapiens, U-118-MG, U118MG, CNS, Glioma
  IC50: 10 µM
[1]; J82, Bladder
  GI50: 10 µM
  IC50: 10 µM
[1]; [22]
  GI50: 10 µM
  IC50: 10 µM
[1]; KLE, Female GU, Uterus
  GI50: 10 µM
  IC50: 10 µM
[1]; KPL-1, KPL1, Breast
  GI50: 10 µM
  IC50: 10 µM
[1]; SKPNDW, Stomach
  IC50: 10 µM
[1]; TE125T, Soft Tissue, Sarcoma
  IC50: 10 µM
[1]; TT, Endocrine, Thyroid
  IC50: 10 µM
[1]; Y79, Eye-retinoblastoma
  GI50: 10 µM
  IC50: 10 µM
[1]; variety of cancer cell lines (Table 3)
  Anti-proliferative activity: anti-proliferative activity
